Assay [1] concerns β-catenin. As to the kind of experiment: Cytosolic β-catenin accumulation in murine DCs (cell fractionation, Western blot). The assay is classed as cell-based. Conditions: murine immature DCs, different doses. (A western blot detects proteins with antibodies after separation by electrophoresis.)
Experimental: BMDCs were treated with either LPS or different doses of SB216763. CD11c^+ DCs were then fractionated into membrane and cytosolic fractions, followed by immunoblotting with antibodies against β-catenin (top) and E-cadherin (middle). Akt was probed as a loading control (bottom).
SB 216763 was purchased from Tocris Cookson Inc. (Ellisville, Mo.). […] Cell Culture and purification of DC, OT-I and OT-II T cells Mouse DM-derived CD11c^+ DCs were isolated using anti-CD11c-conjugated beads and columns (Miltenyi Biotech) according to the manufacturer's protocol. The resulted CD11c^+ DCs were then resuspended in the same culture media at 5-10×10^5 cells/ml; these cells were in single cell suspension and thus referred as cluster-disrupted cells. […] Cell fractionation, Immunoprecipitation and Western blotting Cells were homogenized in hypotonic buffer (10 mM HEPES-KOH pH 7.4, 1.5 mM MgCl2, 10 mM KCl, 0.5 mM DTT) with proteinase and phosphatase inhibitors by passing through 30 gauge needles for 10 times. Postnuclear fractions were centrifuged at 45,000 rpm for 45 min to separate membrane and cytosol fractions. Total cell lysates were obtained with 1% NP-40 lysis buffer (1% Nonidet P-40, 150 mM NaCl, 20 mM Tris, and ImM EDTA (pH 7.5)) supplemented with proteinase and phosphatase inhibitors.
The test system of assay [2] is β-catenin. Nature of the assay: Cytosolic β-catenin accumulation in human DCs (cell fractionation, Western blot). The assay is classed as cell-based. The settings on record: human DCs (not shown).
Another assay has as its system CD11c+ DCs. Nature of the assay: DC maturation of murine BMDCs, CD86 expression by FACS. It counts as cell-based, mouse. (Flow cytometry measures light scatter and fluorescence of single cells or particles in a stream.)
Assay [3] has as its system DCs. Nature of the assay: MHC class II redistribution in DCs by immunofluorescence. It counts as cell-based. The settings on record: immunofluorescence (not shown).
The test system of assay [4] is DCs. Nature of the assay: Cytokine and chemokine production by treated DCs. It counts as cell-based. The source says:
The ability of the GSK3β inhibitor SB216763 to induce maturation was particularly striking. While it is possible this effect was limited to the dramatic increase in free β-catenin, GSK3β also has other targets. For example, by inhibiting GSK3β-mediated phosphorylation of NF-AT, this transcriptional activator would be more readily translocated into the nucleus, possibly synergyzing with β-catenin (Crabtree and Olson, 2002). Other potential mediators (eg Hedgehog, p53, c-myc) might also be affected (Doble and Woodgett, 2003). […] Cytokine and chemokine multiplex analysis The levels of cytokines and chemokines were measured with Luminex suspension array technology. Supernatants were collected and frozen at −80° C. For human CD34^+-derived DCs, cell culture supernatants were then analyzed using the Beadlyte cytokine assay kit (Upstate) with manufacturer's protocol. For mouse cytokines, supernatants were analyzed using the Bio-Plex cytokine assay kit and supporting reagents (BioRad) following manufacturer's procedures.

In the next assay the test system is active β-catenin. As to the kind of experiment: Active β-catenin by sequential immunoprecipitation and immunoblotting in BMDCs. The settings on record: bone marrow-derived DC cultures. It counts as cell-based. From the text: Bone marrow-derived DC cultures were either treated with LPS, SB216763 or cluster disruption (CD). CD11c^+ cells were purified and same number of cells were used to make cell lysates as described. Cell lysates were then subject to sequential immunoprecipitation with antibodies against E-cadherin and β-catenin, followed by immunoblotting with antibodies against E-cadherin (top), active β-catenin (middle) and total β-catenin (bottom).
BMDCs were either treated with LPS or CD and cell lysates from CD11c^+ DCs were subject to sequential immunoprecipitation with antibodies against E-cadherin and β-catenin, followed by immunoblotting with antibodies against E-cadherin (top), active β-catenin (middle) and total β-catenin (bottom).
Reagents and Antibodies Rat anti-E-cadherin, mouse anti-β-catenin, mouse anti-p120 catenin were purchased from BD Transduction Laboratories (Lexington, Calif.). Both mouse anti-E-cadherin (HECD-1 and SHE78-7) and rat anti-E-cadherin (ECCD-1 and 2) monoclonal antibodies were obtained from Zymed (San Francisco, Calif.). Rat monoclonal anti-E-cadherin and rabbit polyclonal β-catenin were obtained from Sigma-Aldrich. […] Flow Cytometry Assays Cells were stained for 30 min on ice with primary antibody and if necessary secondary antibody, washed, and then evaluated on a FACSCalibur™ (Becton Dickinson). […]

Another assay deals with GSK3β (Homo sapiens, UniProt P49841). The settings on record: cited from earlier work.

Entries after “also recorded” stand apart in the source; their conditions may differ.

Chain of GSK3β (P49841 whole entry, species assumed): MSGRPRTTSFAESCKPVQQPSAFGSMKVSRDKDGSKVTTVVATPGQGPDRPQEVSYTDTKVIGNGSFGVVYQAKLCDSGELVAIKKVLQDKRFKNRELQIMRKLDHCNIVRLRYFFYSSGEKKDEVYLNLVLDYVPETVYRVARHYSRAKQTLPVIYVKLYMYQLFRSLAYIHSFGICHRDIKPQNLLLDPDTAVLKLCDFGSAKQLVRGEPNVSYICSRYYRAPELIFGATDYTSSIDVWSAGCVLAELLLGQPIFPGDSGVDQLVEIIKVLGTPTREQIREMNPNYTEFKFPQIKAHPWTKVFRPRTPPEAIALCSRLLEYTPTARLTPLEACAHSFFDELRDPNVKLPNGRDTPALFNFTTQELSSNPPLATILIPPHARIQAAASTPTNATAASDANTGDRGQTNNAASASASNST
Experimental for CD11c+ DCs: BMDCs were prepared as described and CD11c^+ DCs were purified at day 6 and replated at 5×10^5 cells/ml.
CD11c^+ DCs after different stimuli were subject to FACS analysis.
SB 216763 was purchased from Tocris Cookson Inc. (Ellisville, Mo.). […] Flow Cytometry Assays Cells were stained for 30 min on ice with primary antibody and if necessary secondary antibody, washed, and then evaluated on a FACSCalibur™ (Becton Dickinson). […] Cell Culture and purification of DC, OT-I and OT-II T cells Mouse DM-derived CD11c^+ DCs were isolated using anti-CD11c-conjugated beads and columns (Miltenyi Biotech) according to the manufacturer's protocol. The resulted CD11c^+ DCs were then resuspended in the same culture media at 5-10×10^5 cells/ml; these cells were in single cell suspension and thus referred as cluster-disrupted cells.

On to `Cn1cc(C2=C(c3ccc(Cl)cc3Cl)C(=O)NC2=O)c2ccccc21` [SB216763], for which the “accumulation of β-catenin in the cytosol” value in the assay with β-catenin [1] was “dose-dependent accumulation of β-catenin in the cytosol; also recorded: Dose-dependent accumulation of cytosolic β-catenin”; with β-catenin [2], “dose-dependent accumulation of β-catenin in the cytosol”. In addition, in the assay with CD11c+ DCs (10 μM), the “effectiveness at triggering DC maturation compared with LPS and cluster disruption (CD)” value was “nearly as effective as LPS at triggering DC maturation, and slightly more effective than CD”. Besides, the “mature population (percentage of cells expressing high CD86)” value in the assay on CD11c+ DCs (added to immature DCs, different doses) is listed as “increased in a dose-dependent manner; also recorded: results in DC maturation”. In addition, the “mature DC phenotype, MHC class II distribution” value in the assay with DCs [3] is “MHC class II molecules redistributing from lysosomes to the plasma membrane”. The “production of inflammatory cytokines” value with DCs [4] was “failed to induce the production of inflammatory cytokines”. For the same molecule, the “formation of chemokines (eg IP10, MCP-1, MIP-α, CXCL8)” value in the assay with DCs [4] (compared with cluster disruption) is reported as “induced the formation of the same array of chemokines as did CD”. Besides, the “activation of β-catenin (active, non-phosphorylated β-catenin)” value in the assay on active β-catenin is listed as “Resulted in Activation of β-Catenin”. Moreover, the “selectivity as GSK3β inhibitor” value at GSK3β is reported as “selective inhibitor of GSK3β”.
